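Grown in 96-well plates, cells were treated for 48 hours with each compound at five concentrations. Insufficient inhibition: endpoint recorded as highest concentration tested. Here, GI50 denotes the concentration required for 50% inhibition of growth.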 Activity calls are given as the source filed them. No stated cut-off is given here; in the data, active = GI50 up to about 1.1 µM and inactive = higher.
Key:
Assay in all cases: inhibition of tumour cell growth, NCI panel, 48 h
KM-20L2 = tested on: KM-20L2
SNB-78 = tested on: SNB-78
LXFL 529 = tested on: LXFL 529
DLD-1 = tested on: DLD-1
XF498 = tested on: XF498
RXF 631 = tested on: RXF 631
DMS-114 = tested on: DMS-114
DMS-273 = tested on: DMS-273

Measured: GI50

O=C1Cc2ccccc2N1c1c(Cl)cccc1Cl
inactive: KM-20L2 30.2 µM | SNB-78 74.5 µM | LXFL 529 87.7 µM | DLD-1 47.9 µM | XF498 21.6 µM | RXF 631 > 100 µM | DMS-114 29.1 µM

CC1(c2ccc(F)cc2)C(C#N)C(=O)NC(=O)C1C#N (stereo unspecified)
inactive: KM-20L2 > 100 µM | LXFL 529 > 100 µM | DLD-1 > 100 µM | XF498 > 100 µM | RXF 631 > 100 µM | DMS-114 > 100 µM | DMS-273 > 100 µM

N#Cc1ccc([N+](=O)[O-])cc1NC(N)=S
inactive: KM-20L2 > 100 µM | SNB-78 > 100 µM | LXFL 529 16.3 µM | XF498 > 100 µM | RXF 631 > 100 µM | DMS-273 > 100 µM

CCC1N2CCCCC2[C@@H]2c3[nH]c4ccccc4c3CCN12 (stereo partly specified)
inactive: KM-20L2 > 100 µM | SNB-78 > 100 µM | LXFL 529 > 100 µM | DLD-1 > 100 µM | XF498 > 100 µM | RXF 631 > 100 µM | DMS-114 > 100 µM | DMS-273 > 100 µM

c1ccc(N2CCN(CCCN3CCc4c([nH]c5ccccc45)C3c3cccnc3)CC2)cc1 (stereo unspecified)
inactive: KM-20L2 39.4 µM | SNB-78 > 100 µM | LXFL 529 > 74.5 µM | DLD-1 72.8 µM | XF498 5.04 µM | RXF 631 > 55.7 µM | DMS-114 > 100 µM | DMS-273 > 47 µM

COC(=O)CCC(=O)CC(=O)C1=NS(=O)(=O)c2nc(S(N)(=O)=O)c(Cl)cc2N1
inactive: KM-20L2 72.9 µM | LXFL 529 > 100 µM | DLD-1 > 100 µM | XF498 > 100 µM | RXF 631 > 100 µM | DMS-114 > 100 µM | DMS-273 72.3 µM

CC(=O)OCc1nnn2c1C(OC(C)=O)CC2 (stereo unspecified)
inactive: KM-20L2 > 100 µM | SNB-78 > 100 µM | LXFL 529 > 100 µM | DLD-1 > 100 µM | XF498 > 100 µM | RXF 631 > 100 µM | DMS-114 > 100 µM | DMS-273 > 100 µM

CCOC(=O)Nc1ccc(S(=O)(=O)OC)cc1.CCOC(=O)Nc1ccc(S(=O)(=O)OC)cc1.Cc1cn(C2CC(O)C(CO)O2)c(=O)[nH]c1=O
inactive: KM-20L2 > 100 µM | SNB-78 > 100 µM | LXFL 529 > 100 µM | DLD-1 45.5 µM | RXF 631 > 100 µM | DMS-114 69.7 µM | DMS-273 > 100 µM

S=P1(Oc2ccccc2)NNP2(=NP(N3CC3)(N3CC3)=NP(N3CC3)(N3CC3)=N2)NN1 (stereo unspecified)
inactive: LXFL 529 > 100 µM | DLD-1 > 100 µM | XF498 > 100 µM | RXF 631 > 100 µM | DMS-114 > 100 µM | DMS-273 76.4 µM

CCOc1cccc2[s+]snc12
inactive: KM-20L2 > 100 µM | SNB-78 49.3 µM | LXFL 529 77.4 µM | DLD-1 43.9 µM | XF498 25.2 µM | RXF 631 > 100 µM | DMS-273 > 100 µM

CC(C)COC(=O)N1N=NC2C3CC(=O)C(O3)C21 (stereo unspecified)
inactive: KM-20L2 > 100 µM | SNB-78 > 100 µM | LXFL 529 > 100 µM | DLD-1 > 100 µM | RXF 631 > 100 µM | DMS-114 > 100 µM | DMS-273 > 100 µM

CN(C)c1ccc(C=C2C(=O)OC(C)(C)OC2=O)cc1Br
inactive: KM-20L2 > 100 µM | SNB-78 > 10 µM | LXFL 529 > 100 µM | DLD-1 > 100 µM | XF498 > 100 µM | RXF 631 > 100 µM | DMS-114 > 100 µM | DMS-273 > 100 µM

— ChEMBL document CHEMBL1201862, “PubChem BioAssay data set” (2004)
